# Laboratory results: patent US10501479B2, “Benzenesulfonyl-asymmetric ureas and medical uses thereof” (HELSINN HEALTHCARE SA, priority 2016, dated 2019)
# “And” between values parts separate entries of the source, which are not always exact repeats. Equal entries are not always repeated. Where two headings read alike, the source gives them in different places.
# Key:
# [1] = Animal PK study in mouse via i.v., p.o. and s.c. administration; type: in vivo
# Protocol: All treated animals received a single dose of a test compound (either through i.v., p.o., or s.c. administration) according to the regimen shown in the following table:
# For oral dose groups, appropriate amount of test compound was prepared in the following formulation carrier: 1% DMSO (increase to 5% maximum if necessary) and 0.5% Methycellulose. Each mouse or rat received by oral gavage 10 mL/kg of the formulation mixture.
# For i.v. and s.c dose groups, appropriate amount of test compound was dissolved in 1% DMSO (increase to 5% maximum if necessary), 99% of 20% HP-β-Cyclodextron (w/v). The pH was adjusted accordingly. Each mouse or rat received 5 mL/kg of the formulation mixture. i.v. dose was administered by tail vein injection. Subcutaneous injection was administered over the shoulders, into the loose skin over the neck. At designated time points (e.g., i.v. and s.c.: 0.083, 0.25, 0.5, 1, 2, 4, 8 and 24 hrs; p.o.: 0.25, 0.5, 1, 2, 4, 8 and 24 hrs), systemic samples of blood (50 μL in mouse or 500 μL in rat) were collected by puncture (submandibular vein in mouse or jugular vein in rat) into vacutainers containing EDTA-K2 as anti-coagulant. The blood was centrifuged at 6000 rpm for 8 min at 4° C. to obtain plasma. All plasma samples were stored at −20° C. All plasma samples were added to acetonitrile for protein precipitation and quantitatively analyzed by LC-MS/MS.
# [2] = Metabolic stability in human liver microsomes; type: in vitro ADME
# Outline: (§1)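 Parent compound was measured by LC-MS/MS at time zero and after 10, 30 and 90 min at 37 °C. Incubations used liver microsomes from four species (human, dog, rat, mouse) with an NADPH regenerating system in pH 7.4 potassium phosphate buffer. Each timepoint was stopped with cold quench solution.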
# [3] = biological target: T1, recombinant human ghrelin receptor (HEK293/GRLN) (Homo sapiens, UniProt Q92847); assay: Ghrelin inverse agonist potency (EC50) with IP-1 (IP-One HTRF) assay; type: cell-based; details: IP-1 assay
# T1 construct: expressed in transfected cells
# Outline: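 IP-1 accumulation was measured by HTRF (IP1-d2/Tb-cryptate, 620/665 nm read after 1 hour at room temperature) following 1 hour of compound treatment at 37° C. Cells were HEK293 stably expressing human ghrelin receptor, plated a day earlier on Matrigel. Inverse agonist potency was reported as EC50.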
# [4] = biological target: T2, GHSR-1a (HEK293/GHSR1a cell line) (Homo sapiens, UniProt Q92847); assay: Ghrelin antagonist potency (IC50) with calcium FLIPR assay, ghrelin 10 nM; type: cell-based
# T2 construct: expressed in transfected cells; host or cells: HEK293/GHSR1a cell line
# Outline: (§2)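 Calcium flux was followed 2 min by FLIPR in dye-loaded HEK293/GHSR1a cells. For antagonist IC50, compound and ghrelin (10 nM) were co-added at t=20 sec and inhibition of the ghrelin signal fitted; for agonist EC50, compound alone was added at t=20 sec and dose-response fitted.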
# [5] = Metabolic stability in mouse liver microsomes; type: in vitro ADME
# Outline: as §1
# [6] = Animal PK study in rat via i.v., p.o. and s.c. administration; type: in vivo; details: for half-life: plasma, ip, read-out: PK T1/2 i.p.; for half-life / PK CL i.p. / PK Vd i.p.: rat (R), i.p.
# [7] = biological target: T2, GHSR-1a (HEK293/GHSR1a cell line); assay: Ghrelin agonist potency (EC50) with calcium FLIPR assay; type: cell-based
# Outline: as §2
# [8] = inverse agonist potency, read-out: EC50 (Activity)
# [9] = ghrelin antagonist potency, read-out: IC50 (Activity)
# [10] = ghrelin agonist potency, read-out: Activity EC50/EMax
# [11] = ghrelin inverse agonist potency, read-out: Activity EC50
# [12] = ghrelin antagonist potency, read-out: Activity IC50
# T2 sequence (Q92847 whole entry): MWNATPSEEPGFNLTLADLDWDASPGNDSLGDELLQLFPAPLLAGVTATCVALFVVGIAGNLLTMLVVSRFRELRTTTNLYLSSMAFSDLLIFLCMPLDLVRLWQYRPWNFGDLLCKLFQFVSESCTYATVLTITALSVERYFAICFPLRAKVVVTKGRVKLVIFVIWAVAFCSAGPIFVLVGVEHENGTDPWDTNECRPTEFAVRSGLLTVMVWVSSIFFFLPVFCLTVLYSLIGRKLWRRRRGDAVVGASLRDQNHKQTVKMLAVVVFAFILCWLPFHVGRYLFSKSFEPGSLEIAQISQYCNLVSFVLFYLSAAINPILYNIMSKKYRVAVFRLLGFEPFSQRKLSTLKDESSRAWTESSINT
# T1 sequence (Q92847 whole entry): as above
smiles,measurement,setting,value
"CC(NC(=O)Nc1ccc(S(=O)(=O)Cc2ccc3c(c2)CNC3)cc1)c1cccc2ccccc12.Cl (centres unmarked) [H1149, 1-(4-((isoindolin-5-ylmethyl)sulfonyl)phenyl)-3-(1-(naphthalen-1-yl)ethyl)urea]",PK F,[1],0.86%
same,PK CLiv,[1]; i.v.,16.3 mL/min/kg
same,PK Vdiv,[1]; i.v.,1.22 L/kg
same,PK t1/2iv,[1]; i.v.,0.87 h
same,PK CLpo,[1]; p.o.,1792 mL/min/kg
same,PK Vdpo,[1]; p.o.,272 L/kg
same,PK t1/2po,[1]; p.o.,1.75 h
same,Metabolic Stability Study H = human,[2],21.1 µL/min/mg
same,EC50,[3]; [8],1.69 nM and 2.41 nM
same,IC50,[4]; [9],4.8 nM
same,Metabolic Stability Study M = mouse,[5],24.3 µL/min/mg
"C[C@H](NC(=O)Nc1ccc(S(=O)(=O)Cc2ccc3c(c2)CCNC3)cc1)c1cccc(Cl)c1Cl [H1027, (S)-1-(1-(2,3-dichlorophenyl)ethyl)-3-(4-(((1,2,3,4-tetrahydroisoquinolin-6-yl)methyl)sulfonyl)phenyl)urea]",PK F,[1],F = 0.72 (M); %
same,PK CLiv,[1]; i.v.,11.8 mL/min/kg
same,PK Vdiv,[1]; i.v.,1.64 L/kg
same,PK t1/2iv,[1]; i.v.,1.61 (M); h
same,PK CLpo,[1]; p.o.,1428 mL/min/kg
same,PK Vdpo,[1]; p.o.,345 (M); L/Kg
same,PK t1/2po,[1]; p.o.,2.79 (M); h
same,PK F,[6]; rat,57.14 (R) %
same,PK CLiv,"[6]; rat, i.v.",205.7 mL/min/kg
same,PK Vdiv,"[6]; rat, i.v.",168.2 L/kg
same,PK t1/2iv,"[6]; rat, i.v.",10.2 (R) h
same,PK CLpo,"[6]; rat, p.o.",416.3 mL/min/kg
same,PK Vdpo,"[6]; rat, p.o.",80.4 (R) L/Kg
same,PK t1/2po,"[6]; rat, p.o.",2.21 (R) h
same,Metabolic Stability Study H = human,[2],H = <10 M = <10 R = not reported D = not reported μL/min/mg
same,EC50,[3]; [8],1.62 nM
same,IC50,[4]; [9],2.5 nM
same,Metabolic Stability Study M = mouse,[5],H = <10 M = <10 R = not reported D = not reported μL/min/mg
"C[C@H](NC(=O)Nc1ccc(S(=O)(=O)Cc2ccc(CC(C)(C)N(C)C)cc2)cc1)c1cccc(Cl)c1Cl [H1010, (S)-1-(1-(2,3-dichlorophenyl)ethyl)-3-(4-((4-(2-(dimethylamino)-2-methylpropyl)benzyl)sulfonyl)phenyl)urea]",PK F,[1],3.09%
same,PK CLiv,[1]; i.v.,55.7 mL/min/kg
same,PK Vdiv,[1]; i.v.,1.39 L/kg
same,PK t1/2iv,[1]; i.v.,1.39 h
same,PK CLpo,[1]; p.o.,1803 mL/min/kg
same,PK Vdpo,[1]; p.o.,169 L/kg
same,PK t1/2po,[1]; p.o.,1.08 h
same,Metabolic Stability Study H = human,[2],H = 40.5 M = 40.5 R = not reported D = not reported μL/min/mg
same,EC50,[3]; [8],15 nM
same,IC50,[4]; [9],42 nM
same,Metabolic Stability Study M = mouse,[5],H = 40.5 M = 40.5 R = not reported D = not reported μL/min/mg
"CC(c1ccccc1)N(O)C(=O)Nc1ccc(S(=O)(=O)Cc2ccc3c(c2)CNC3)cc1 (centres unmarked) [H1472, 1-hydroxy-3-(4-((isoindolin-5-ylmethyl)sulfonyl)phenyl)-1-(1-phenylethyl)urea]",EC50,[7]; [10],> 30000 nM
same,half-life,[6],2.43 h
same,PK CL i.p.,[6],36.5 mL/min/kg
same,PK Vd i.p.,[6],7.71 L/kg
same,EC50,[3]; [11],3.25 nM
same,IC50,[4]; [12],6 nM
"O=C(NCc1ccccc1Cl)Nc1ccc(S(=O)(=O)Cc2ccc3c(c2)CCNC3)cc1 [H1039, 1-(2-chlorobenzyl)-3-(4-(((1,2,3,4-tetrahydroisoquinolin-6-yl)methyl)sulfonyl)phenyl)urea]",PK F,[1],0.6%
same,PK CLiv,[1]; i.v.,42.5 mL/min/kg
same,PK Vdiv,[1]; i.v.,11.7 L/kg
same,PK t1/2iv,[1]; i.v.,3.18 h
same,PK CLpo,[1]; p.o.,5573 mL/min/kg
same,PK Vdpo,[1]; p.o.,898 L/kg
same,PK t1/2po,[1]; p.o.,1.86 h
same,Metabolic Stability Study H = human,[2],< 10 µL/min/mg
same,EC50,[3]; [8],33.3 nM
same,IC50,[4]; [9],113 nM
same,Metabolic Stability Study M = mouse,[5],13.5 µL/min/mg
"COc1ccc([C@H](C)NC(=O)Nc2ccc(S(=O)(=O)Cc3ccc4c(c3)CCN(C(C)=O)C4)cc2)c(Cl)c1Cl [H1025, (S)-1-(4-(((2-acetyl-1,2,3,4-tetrahydroisoquinolin-6-yl)methyl)sulfonyl)phenyl)-3-(1-(2,3-dichloro-4-methoxyphenyl)ethyl)urea]",PK F,[1],5.92%
same,PK CLiv,[1]; i.v.,30.7 mL/min/kg
same,PK Vdiv,[1]; i.v.,2.86 L/kg
same,PK t1/2iv,[1]; i.v.,1.08 h
same,PK CLpo,[1]; p.o.,514.8 mL/min/kg
same,PK Vdpo,[1]; p.o.,94.83 L/kg
same,PK t1/2po,[1]; p.o.,1.45 h
same,Metabolic Stability Study H = human,[2],92.4 µL/min/mg
same,IC50,[4]; [9],21400 nM
same,Metabolic Stability Study M = mouse,[5],159.5 µL/min/mg
"CC(NC(=O)Nc1ccc(S(=O)(=O)Cc2ccc3c(c2)CN(C)C3)cc1O)c1ccccc1 (centres unmarked) [H1448, 1-(2-hydroxy-4-(((2-methylisoindolin-5-yl)methyl)sulfonyl)phenyl)-3-(1-phenylethyl)urea]",EC50,"[7]; HEK293/GHSR1a, read-out: Activity EC50/EMax: EC50 (ghrelin agonist potency)",> 30000 nM
same,PK F,[1],1.90%
same,PK CL p.o.,[1]; p.o.,4243 mL/min/kg
same,PK Vd p.o.,[1]; p.o.,242.2 L/kg
same,Vd,"[1]; plasma, iv, 5 mg/kg",9.26 L/kg
same,clearance,"[1]; plasma, iv, 5 mg/kg, i.v., read-out: PK CL i.v.",80.5 mL/min/kg
same,half-life,"[1]; plasma, iv, 5 mg/kg, i.v., read-out: PK t1/2 i.v.",1.33 h
same,half-life,"[1]; plasma, po, 10 mg/kg, p.o., read-out: PK t1/2 p.o.",0.66 h
same,Metabolic Stability Study H = human,[2],28 µL/min/mg
same,EC50,"[3]; HEK293/GRLN, read-out: Activity EC50 (ghrelin inverse agonist potency)",3.3 nM
same,IC50,"[4]; HEK293/GHSR1a, ghrelin 10 nM, read-out: Activity IC50 (ghrelin antagonist potency)",30.3 nM
same,Metabolic Stability Study M = mouse,[5],20.8 µL/min/mg
"CC(NC(=O)Nc1ccc(S(=O)(=O)Cc2ccc3c(c2)CN(CC2CC2)C3)cc1)c1ccccc1 (centres unmarked) [H1220, 1-(4-(((2-(cyclopropylmethyl)isoindolin-5-yl)methyl)sulfonyl)phenyl)-3-(1-phenylethyl)urea]",PK F,[1],4.71%
same,PK CLiv,[1]; i.v.,50.8 mL/min/kg
same,PK Vdiv,[1]; i.v.,3.08 L/kg
same,PK t1/2iv,[1]; i.v.,0.7 h
same,PK CLpo,[1]; p.o.,1030 mL/min/kg
same,PK Vdpo,[1]; p.o.,78.7 L/kg
same,PK t1/2po,[1]; p.o.,0.89 h
same,Metabolic Stability Study H = human,[2],183.8 µL/min/mg
same,EC50,[3]; [8],30.4 nM
same,IC50,[4]; [9],3.61 nM
same,Metabolic Stability Study M = mouse,[5],248 µL/min/mg
"COc1cc(NC(=O)NC(C)c2ccccc2)ccc1S(=O)(=O)Cc1ccc2c(c1)CNC2 (centres unmarked) [H1461, 1-(4-((isoindolin-5-ylmethyl)sulfonyl)-3-methoxyphenyl)-3-(1-phenylethyl)urea]",EC50,[7]; [10],> 30000 nM
same,half-life,[6],2.61 h
same,PK CL i.p.,[6],38.3 mL/min/kg
same,PK Vd i.p.,[6],8.64 L/kg
same,Metabolic Stability Study H = human,[2],22.0 µL/min/mg
same,EC50,[3]; [11],3.5 nM
same,IC50,[4]; [12],7.9 nM
same,Metabolic Stability Study M = mouse,[5],< 10 µL/min/mg
